Laboratory results as given in PMC3496014 (Journal of structural biology, 2012).
Like-named read-outs stand apart in the source and are kept apart here.

System: PfAtg8 WT
Type: binding, P. falciparum
Details: for WTRU/NOISE (response divided by overall noise, WT): pH 8
[1] = ratio of WT to K19E/K47E normalized response, hit threshold at least 1.5

SMILES: O=[N+]([O-])c1ccc(Cl)c2nonc12 [Fragment 470, 4-chloro-7-nitrobenzofurazan]
- (WTRU/NOISE)/(MutRU/NOISE) [1]: 1.52

SMILES: Oc1cccc(O)c1O [Fragment 410, 1,2,3-benzenetriol]
- WTRU/NOISE (response divided by overall noise, WT): 22.79
- (WTRU/NOISE)/(MutRU/NOISE) [1]: 6.19

SMILES: Oc1ccc(O)c(O)c1 [Fragment 408, 1,2,4-benzenetriol]
- WTRU/NOISE (response divided by overall noise, WT): 5.33
- (WTRU/NOISE)/(MutRU/NOISE) [1]: 3.56

SMILES: O=c1ccc2cc(O)c(O)cc2o1 [Fragment 268, 6,7-dihydroxycoumarin]
- (WTRU/NOISE)/(MutRU/NOISE): 3.73
- WTRU/NOISE (response divided by overall noise, WT): 1.79

SMILES: O=[N+]([O-])c1ccc(O)c(O)c1 [Fragment 537, 4-nitrocatechol]
- WTRU/NOISE (response divided by overall noise, WT): 2.39
- (WTRU/NOISE)/(MutRU/NOISE) [1]: 1.90

SMILES: O=C1CC(=O)c2ccccc21 [Fragment 792, 1,3-indandione]
- WTRU/NOISE (response divided by overall noise, WT): 2.38
- (WTRU/NOISE)/(MutRU/NOISE) [1]: 2.15
